# Measurements from patent US20090137517A1, “SENSITIZING A CELL TO CANCER TREATMENT BY MODULATING THE ACTIVITY OF A NUCLEIC ACID ENCODING RPS27L PROTEIN” (Agency for Science, Technology and Research, priority 2006, published 2009).
# Columns and labels:
# Format in all cases: cell-based, human
# RPS27L mRNA = test: RT-PCR of RPS27L mRNA after drug treatment of HCT116 cells; details: p53 wild-type HCT116 cells; ADR (1 μM) or 5-FU (375 μM); not in p53 null cells
# Source text: FIG. 1A depicts the microarray analysis showing a set of genes whose expression was induced by the DNA damaging agents adriamycin (ADR) and 5-fluorouracil (5-FU) in p53 wild-type HCT116 cells (human colorectal carcinoma cell line containing wild type p53) but not in the p53 null counterpart. In both treatments, RPS27L, together with bona fide p53 targets such as cdkn1a (encodes p21), Pmaid (encodes Noxa) and ccd3 (encodes Puma), was unregulated in a p53-dependent manner. To validate the microarray data, RT-PCR analysis was performed (FIG. 1B).
# The human colon carcinoma cell line HCT116 and its p53 knock-out derivate cells were kindly provided by Dr. Bert Vogelstein. HCT116 cells can also be purchased under the ATCC number: CCL 247. The human osteosarcoma cell lines U2OS and Saos-2 can be purchased under the following ATCC numbers: U2OS, ATCC HTB-96; Saos-2, ATCC HTB-85 and SH-SY5Y, ATCC CRL-2266. Cells were grown in DMEM supplemented with 10% fetal bovine serum and penicillin-streptomycin (Invitrogen). Adriamycin, etoposide phosphate (VP16®) and 5-fluorouracil were purchased from Sigma-Aldrich.
# All RT-PCR was performed using the Titanium One Step RT-PCR Kit (BD Clontech).
# RPS27L protein [1] = test: Western blot of RPS27L protein levels in HCT116 cells; details: ADR (1 μM), 5-FU (375 μM), nutlin-3 (10 μM)
# Protocol: (§1) To investigate whether the p53-induced increase in RPS27L mRNA also gives rise to the increased protein levels, immunoblot analysis of p53 wild-type and p53 null HCT116 cells treated with ADR, 5-FU or nutlin-3, a small molecule MDM2 antagonist that directly activates p53 (Vassilev, L. T., Vu, B. T., et al. (2004) “In vivo activation of the p53 pathway by small-molecule antagonists of MDM2” Science, vol. 303, p. 844-848) was performed. […] To extend this observations to other cell lines and to other p53 stimuli, U2OS (human osteosarcoma cell line) and SH-SY5Y (human neuroblastoma cell line) cells (p53 wild type) as well as Saos-2 cells (human osteosarcoma cell line, p53-deficient) were treated with ADR, etoposide phosphate (VP16®) and 5-FU (FIG. 2B). […] Obviously, 5-FU treatment activates a posttranslational mechanism that causes RPS27L protein downregulation in spite of the increased mRNA expression.
# (§2) Cells were harvested and lysed with RIPA buffer (50 mM Tris-HCl, pH7.4, 1 mM EDTA, 150 mM NaCl, 1% Nonidet P-40, 0.5% sodium deoxycholate and proteinase inhibitors). The lysates were clarified by centrifugation at 16,000×g for 15 minutes at 4° C. Protein concentrations were determined with the Bradford Protein Assay Kit (Bio-Rad). 20-50 μg protein samples were separated by SDS-PAGE, transferred onto an Immobilon membrane (Millipore) and blotted with antibodies. Anti-p53 and anti-p21 antibodies were from Santa Cruz; anti-MDM2 and anti-Puma antibodies were from Merck. The rabbit polyconal antibody to RPS27L was raised against a 14 amino acid peptide from human RPS27L (SEQ ID NO: 2: LHPSLEEEKKKHKK).
# p53 and p21 = test: Western blot of p53 and p21 protein levels in HCT116 cells; details: ADR (1 μM), 5-FU (375 μM), nutlin-3 (10 μM)
# Protocol: as §1, §2
# RPS27L protein [2] = test: Western blot of RPS27L protein in U2OS, SH-SY5Y and Saos-2 cells; details: U2OS and SH-SY5Y (p53 wild type), Saos-2 (p53-deficient); VP16 (10 μM), ADR (1 μM), 5-FU (375 μM)
# Protocol: as §1, §2
# HCT116 cells = test: Cytokinesis blocked micronucleus (CBMN) assay; details: RPS27L-depleted HCT116 cells, ADR (1 μM) 24 h
# Protocol: In order to examine DNA damage directly, the comet assay was used next. The comet assay is a single cell gel electrophoresis assay in which damaged DNA migrates to form a “comet tail” that is proportional to the amount of DNA damage (Collins, A. R. (2004) “The comet assay for DNA damage and repair: principles, applications, and limitations” Mol Biotechnol, vol. 26, p. 249-261). Cells were incubated with ADR for 24 h and were harvested and processed for the comet assay. […] We then investigated whether elevated DNA damage has caused chromosome instability. […]
# After treatment with ADR, cells were incubated with cytochalasin B (Sigma, 5 μg/ml) for an additional 22 h. […] Fixed cells were dropped onto clean slides and stained with 3 μg/ml Acridine Orange (which differentially stains cytoplasm and nucleus) (Hande, M. P., et al. (1996) “Induction and persistence of cytogenetic damage in mouse splenocytes following whole-body X-irradiation analysed by fluorescence in situ hybridization. II. Micronuclei.” Int J Radiat Biol.; vol. 70(4), p. 375-83; Hande, M. P., et al. (1997) “Induction and persistence of cytogenetic damage in mouse splenocytes following whole-body X-irradiation analysed by fluorescence in situ hybridization. III. Chromosome malsegregation/aneuploidy” Mutagenesis, vol. […] One thousand binucleated cells were scored for each sample.
# [3] = test system: p53 and its downstream targets p21, puma and MDM2; test: Immunoblot of p53 and its targets in control and RPS27L-depleted HCT116 cells; details: RPS27L-depleted versus control HCT116 cells
# Protocol: (§3) As RPS27L depletion sensitizes only p53 wild-type cells to DNA damage, the inventors next assessed the effect of RPS27L loss on p53 signaling pathway. The effects of RPS27L depletion on p53 and its downstream targets p21, puma and MDM2 was examined by immunoblot analysis. […] By contrast, p53-dependent activation of Puma and MDM2 were not decreased upon RPS27L loss.
# as §2
# p21 = test: Immunoblot of p21 in U2OS cells with transient RPS27L knockdown; details: RPS27L knocked down by transient transfection, ADR (1 μM) 24 hours
# Protocol: as §3, §2
structure (smiles),measurement,setting,value
"COc1cccc2c1C(=O)c1c(O)c3c(c(O)c1C2=O)C[C@@](O)(C(=O)CO)C[C@@H]3O[C@H]1C[C@H](N)[C@H](O)[C@H](C)O1 [ADR, adriamycin]",RPS27L mRNA,RPS27L mRNA,induced
same,RPS27L protein level,RPS27L protein [1],increased RPS27L protein levels
same,p53 and p21 protein,p53 and p21,accumulation of p53 and p21
same,RPS27L protein level,RPS27L protein [2],p53-dependent upregulation of RPS27L protein
same,micronucleus frequency,HCT116 cells,increased micronucleus frequency
same,p53-dependent activation of Puma and MDM2,[3]; ADR (1 μM),not decreased
same,effect of RPS27L depletion on ADR-induced p53 activation,[3]; ADR (1 μM) 24 and 48 hours,no significant effect
same,p21 accumulation in response to ADR,[3]; ADR (1 μM) 24 and 48 hours,significant reduced
same,p21 protein level,p21,substantial decrease
